{"source": "patent US20240166703A1", "about": "“ANTI-INFLAMMATORY PEPTIDE AND METHOD OF USE THEREOF” (The Regents of the University of California, priority 2021, published 2024)", "key": {"[1]": {"system": "BMDM cells", "test": "Quantitation of cytokines in supernatant of cultured BMDM cells (toxicity)", "format": "cell-based, C57BL/6J mice", "settings": "100 μM, 24 hours, without stimulating the cells", "procedure": "With the approval of the UCSD and Veteran Affairs San Diego Institutional Animal Care and Use Committees (IACUC), bone marrow-derived macrophage (BMDM) cells were isolated from 6-8 weeks old C57BL/6J mice (Jackson Laboratory) followed by erythrocyte lysis with ammonium chloride, and then seeded in 12-well plates at a concentration of 1×10^6 cells/mL. Cultured cells were differentiated to macrophages with culture media containing monocyte-colony stimulating factor (M-CSF; 10 ng/mL). After 7 days of differentiation, BMDM cells were treated with TNF-α (10 ng/mL) or LPS ([…]) with or without TAT-NEMO^ActPep, TAT-NEMO^ActPep6G, or MLN120B.\nBMDM cels were pre-incubated with or without 100 μM TAT-NEMO^ActPep or MLN120B for 24 hours. Negative control cells were treated with 1×PBS or DMSO at the same concentrations as those present in either TAT-NEMO^ActPep or MLN120B, respectively. IL-1β and TNF-α levels were measured from 20 μL supernatant of cultured BMDM cells using U-PLEX mouse cytokine assay kit (Meso Scale Diagnostics) following the manufacturer's protocol. […] Experiments were performed in triplicate.\nFurther, the potentially toxic effects of a high concentration (100 μM) dose of NEMO^ActPep were tested on IL-1β production in BMDMs without stimulating the cells. […]"}, "[2]": {"system": "B- and T-cell proliferation", "settings": "cited from earlier work"}, "[3]": {"system": "mice", "settings": "mouse, in vivo; cited from earlier work"}}, "data": [{"smiles": "COc1c(Cl)cc2c([nH]c3cnccc32)c1NC(=O)c1cccnc1C", "note": "[MLN120B]", "values": [{"measurement": "TNF-α expression / basal levels in BMDM supernatant", "setting": "[1]", "value": "reduced basal levels of TNF-α"}, {"measurement": "production of IL-1β in BMDM supernatant", "setting": "[1]", "value": "significantly induced production of mature IL-1β"}, {"measurement": "B- and T-cell proliferation", "setting": "[2]", "value": "block B- and T-cell proliferation"}, {"measurement": "neutrophilia in mice", "setting": "[3]", "value": "promote neutrophilia"}, {"measurement": "septic shock in mice", "setting": "[3]", "value": "cause septic shock"}]}]}
